Several values for one entry are separate records, joined by “and”; a condition that tells them apart may be missing. Equal values may be shown once.
Experiments:
[1] = cited from earlier work
[2] = Filterability of ddCTP/PSC (filtration yield); format: physicochemical; details: ddCTP with or without cationic PSC

Filtration yield % [2] [%] | Molecule | pKa [1]
 | COc1cccc2c1C(=O)c1c(O)c3c(c(O)c1C2=O)C[C@@](O)(C(=O)CO)C[C@@H]3O[C@H]1C[C@H](N)[C@H](O)[C@H](C)O1 [Doxorubicin] | 8.5 and 8.2-8.5
99.4 ± 0.8 | dideoxy cytidine triphosphate [Free ddCTP] | 

Reference: patent publication US6759060B2, “Synthetic particulate vectors and preparation process” (Biovector Therapeutics, S.A., priority 1993, dated 2004)
